Holding throughout (test): inhibition of tumour cell growth, NCI panel, 48 h
Assay [1] has as its system MALME-3M melanoma.
The subject of assay [2] is KM12 colon.
Assay [3] relates to HCT-15 colon.
For assay [4], the system named is T-47D breast.
Assay [5] has as its system DMS 273 small cell lung.
In assay [6] the test system is HL-60(TB) leukemia.
Assay [7] relates to COLO 205 colon.
Assay [8] relates to OVCAR-8 ovarian.
In assay [9] the test system is OVCAR-3 ovarian.
Assay [10] deals with LXFL 529 NSCLC.
Assay [11] has as its system M19-MEL melanoma.

The structures appear in SMILES notation. Several values for one entry are separate records, joined by “and”; a condition that tells them apart may be missing. Equal entries are not always repeated.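 Exposure lasted 48 hours, with cells grown in 96-well plates and compounds tested at five concentrations. GI50 = concentration required for 50% inhibition of growth. TGI: concentration producing complete growth inhibition.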 Bounds are passed on as bounds.

For `COC(=O)[C@@]12OC[C@]34[C@H]([C@@H](O)[C@@H]1O)[C@@]1(C)CC(=O)C(O)=C(C)[C@@H]1C[C@H]3OC(=O)[C@H](OC(=O)/C=C(\C)C(C)C)[C@@H]24`, the TGI in assay [1] is 0.00498 µM and 0.0263 µM; in assay [2] it was 0.03 µM and 0.146 µM and 0.0574 µM; in assay [3] it was 0.0588 µM and 0.0562 µM and 0.055 µM; in [4], 0.0581 µM; in assay [5], 0.000177 µM; in assay [6], 0.00583 µM. Moreover, the TGI in assay [7] is 0.0167 µM and 0.0586 µM; in assay [8], 0.0406 µM and 0.0561 µM; in assay [9], 0.0151 µM and 0.0911 µM.
As to `C[N+](C)(C)CC1CCC(C[N+](C)(C)C)C1=NO` (configuration not stated), the TGI in assay [10], in [1], in assay [2], in assay [3], in assay [11] and in [6] was > 100 µM each time. Besides, the TGI in assay [7], in assay [8] and in assay [9] was > 100 µM in each case.
As to `CCCC1C[C@H]2CCCCN2[C@H]2CCCN12` (some centres not stated), the TGI is > 100 µM in [10]; > 100 µM in assay [1]; > 100 µM in assay [2]; > 75.5 µM in assay [3]; > 100 µM in assay [5]; > 64 µM in assay [6]. Besides, the TGI in [7] is > 83.4 µM; in assay [8], > 100 µM; in [9], > 100 µM.
For `OCCCN=C1CCCCC1`, the TGI in [1], in assay [2], in [3], in assay [4], in assay [6] and in assay [7] was > 100 µM throughout. The TGI in assay [8] and in [9] was > 100 µM throughout.
`NC(=NCCCCCCN=C(N)/N=C(\N)Nc1ccc(Cl)cc1)/N=C(\N)Nc1ccc(Cl)cc1`: the GI50 in [1] was 1100 nM; in assay [2], 927 nM; in assay [3], 2000 nM; in assay [4], 1710 nM; in assay [6], 1100 nM; in [7], 951 nM. The figures for the GI50 in assay [8] and in assay [9] were 1670 nM and 1450 nM, respectively. Moreover, the TGI was found to be 3.28 µM in assay [1]; 1.74 µM in [2]; 9.46 µM in assay [3]; 7.72 µM in assay [4]; 2.49 µM in assay [6]; 1.71 µM in assay [7]. Also, the results for the TGI in assay [8] and in assay [9] were 7.19 µM and 3.55 µM, respectively.
As for `CC1(C)N=C(N)N=C(N)N1c1ccc(CCCC(=O)Nc2ccc(S(=O)(=O)F)cc2)cc1`, the GI50 was 24200 nM in [1]; 3540 nM in assay [2]; 39300 nM in [3]; 15800 nM in assay [4]; 3470 nM in [6]; 5590 nM in assay [7]. Also, the GI50 is 12900 nM in assay [8] and 33600 nM in [9]. The TGI in assay [1] is > 100 µM; in assay [2], > 100 µM; in assay [3], > 100 µM; in assay [4], 98.2 µM; in assay [6], > 100 µM; in [7] it was > 100 µM. Moreover, the TGI in assay [8] and in assay [9] was > 100 µM throughout.
For the compound `CC(=O)ON(OCc1ccc2ccccc2c1)C(C)=O`, the GI50 in [1], in [2], in assay [3], in [4], in assay [6] and in assay [7] was > 100000 nM in each case. In addition, the GI50 in assay [8] and in [9] was > 100000 nM each time. Also, the TGI in [1], in assay [2], in [3], in assay [4], in assay [6] and in assay [7] was > 100 µM in each case. For the same compound, the TGI in assay [8] and in assay [9] was > 100 µM in each case.
Regarding `O=[N+]([O-])c1ccccc1N=Nc1c(O)[nH]c2c(Cl)cccc12`, the TGI in assay [1] was > 35.2 µM; in [2] it was > 80.3 µM; in assay [3] it was > 100 µM; in assay [4], > 75 µM; in assay [6], > 100 µM; in [7], > 100 µM. Besides, the TGI in assay [8] is 37.4 µM; in assay [9], > 85.3 µM.
With `O=C(N/C(=C\c1ccc([N+](=O)[O-])cc1)c1nc2ccccc2s1)c1ccccc1`, the TGI in [10] was 42.9 µM; in [1], > 100 µM; in [2], 92.1 µM; in [3] it was > 100 µM; in assay [11], 53.9 µM; in assay [5], > 100 µM. Moreover, the TGI was > 100 µM in assay [7], 64.2 µM in assay [8] and > 100 µM in assay [9].
With `COc1ccc2nc3ccccc3c(NCCNCCO)c2c1`, the GI50 in assay [1] was 382 nM; in assay [2] it was 455 nM; in assay [3] it was 2040 nM; in assay [4] it was 673 nM; in [6], 572 nM; in assay [7] it was 397 nM. In addition, the GI50 is 528 nM in assay [8] and 624 nM in assay [9]. The TGI in assay [1] turned out to be 1.88 µM; in assay [2] it was 3.37 µM; in [3], 22.2 µM; in assay [4] it was 6.71 µM; in [6], 1.68 µM; in assay [7] it was 1.77 µM. The TGI amounted to 8.88 µM in [8] and 2.77 µM in [9].
Turning to `N=C(N)c1ccc2oc3ccc(C(=N)N)cc3c(=O)c2c1`, the TGI in [1], in [2], in assay [3], in assay [4], in [6] and in [7] was > 100 µM each time. Besides, the TGI in assay [8] and in [9] was > 100 µM in each case.
Turning to `COC1C(OC(=O)c2ccc(C)[nH]2)C(O)C(Oc2ccc3c(O)c(NC(=O)c4ccc(O)c(CC=C(C)C)c4)c(=O)oc3c2Cl)OC1(C)C` (configuration not stated), the TGI in assay [1] is 34 µM; in assay [2], 26.1 µM; in assay [3] it was 38.1 µM; in [4] it was 36.5 µM; in assay [6] it was > 100 µM; in assay [7], 52.8 µM. The TGI in [8] turned out to be 52 µM; in assay [9] it was 43.6 µM.

The values are drawn from PubChem BioAssay (NCI).
